Results: ChEMBL document CHEMBL5537143, “Synthesis and antimicrobial properties of guanidine-functionalized labdane type diterpenoids” (Eur J Med Chem, 2024)
Converted amounts (≈) assume the structure as drawn.

How the values were obtained:
Assay type in all cases: functional
Klebsiella pneumoniae [1] = assay: Antimicrobial activity against Klebsiella pneumoniae ATCC 13883 assessed as inhibition of microbial growth incubated for 24 hrs by broth-microdilution assay; details: read-out: MIC100
Pseudomonas aeruginosa [2] = assay: Antimicrobial activity against Pseudomonas aeruginosa ATCC 27853 assessed as inhibition of microbial growth incubated for 24 hrs by broth-microdilution assay; details: Pseudomonas aeruginosa, ATCC 27853, read-out: MIC100
Pseudomonas aeruginosa [3] = assay: Antimicrobial activity against Pseudomonas aeruginosa PAO1 assessed as inhibition of microbial growth incubated for 24 hrs by broth-microdilution assay; details: Pseudomonas aeruginosa, PAO1, read-out: MIC100
Staphylococcus aureus [4] = assay: Antimicrobial activity against Staphylococcus aureus 29213 assessed as inhibition of microbial growth incubated for 24 hrs by broth-microdilution assay
Staphylococcus aureus [5] = assay: Antimicrobial activity against methicillin resistant Staphylococcus aureus 43300 assessed as inhibition of microbial growth incubated for 24 hrs by broth-microdilution assay; details: read-out: MIC
[6] = tested on: Staphylococcus epidermidis; assay: Antimicrobial activity against Staphylococcus epidermidis ATCC 12228 assessed as inhibition of microbial growth incubated for 24 hrs by broth-microdilution assay; details: Staphylococcus epidermidis, ATCC 12228, read-out: MIC
[7] = tested on: Staphylococcus epidermidis; assay: Antimicrobial activity against Staphylococcus epidermidis ATCC 35984 assessed as inhibition of microbial growth incubated for 24 hrs by broth-microdilution assay; details: Staphylococcus epidermidis, ATCC 35984, read-out: MIC
Candida albicans [8] = assay: Antifungal activity against Candida albicans ATCC 90028 assessed as reduction in fungal growth incubated for 48 hrs by CLSI based analysis
Candida albicans [9] = assay: Antifungal activity against Candida albicans ATCC 10231 assessed as reduction in fungal growth incubated for 48 hrs by CLSI based analysis; details: read-out: MIC100
Klebsiella pneumoniae [10] = assay: Antimicrobial activity against Klebsiella pneumoniae ATCC BAA1705 assessed as inhibition of microbial growth incubated for 24 hrs by broth-microdilution assay

**Q.** What does the source list for `NC[C@H]1O[C@H](O[C@H]2[C@H](O)[C@@H](O[C@H]3O[C@H](CO)[C@@H](O)[C@H](N)[C@H]3O)[C@H](N)C[C@@H]2N)[C@H](N)C[C@@H]1O` [TOBRAMYCIN]?
**A.** MIC (Klebsiella pneumoniae [1]): 2 µg/mL; MIC (Pseudomonas aeruginosa [2]): 2 µg/mL; MIC (Pseudomonas aeruginosa [3]): 2 µg/mL

**Q.** `CC1=C(CC/C=C(\C)C(=O)N=C(N)N)[C@@]2(C)CCCC(C)(C)[C@@H]2CC1` was tested. Which MIC (Staphylococcus aureus [4]) did it give?
**A.** The MIC was 4 µg/mL.

**Q.** What about the MIC (Staphylococcus aureus [5]) of the same compound?
**A.** The MIC was 4 µg/mL.

**Q.** And the MIC [6]?
**A.** The MIC was 4 µg/mL.

**Q.** What about the MIC [7] of the same compound?
**A.** Its MIC is 4 µg/mL.

**Q.** And the MIC (Candida albicans [8]; read-out: MIC)?
**A.** The MIC was 8 µg/mL (≈ 23.2 µM).

**Q.** For `CC(=O)O[C@](C)(CCC1[C@](C)(OC(C)=O)CC[C@H]2C(C)(C)CCC[C@]12C)C(=O)N=C(N)N` (some centres undefined), which MIC (Staphylococcus aureus [4]) is on record?
**A.** The MIC was 4 µg/mL.

**Q.** What about the MIC (Staphylococcus aureus [5]) of the same compound?
**A.** The MIC was 4 µg/mL.

**Q.** And the MIC [6]?
**A.** The MIC was 4 µg/mL.

**Q.** And the MIC [7]?
**A.** Its MIC is 4 µg/mL.

**Q.** And the MIC (Candida albicans [8]; read-out: MIC)?
**A.** Its MIC is 16 µg/mL (≈ 35.4 µM).

**Q.** Which results are given for `C[C@@H]1[C@H](O)[C@@H](C)/C=C/C=C/C=C/C=C/C=C/C=C/C=C/[C@H](O[C@@H]2O[C@H](C)[C@@H](O)[C@H](N)[C@@H]2O)C[C@@H]2O[C@](O)(C[C@@H](O)C[C@@H](O)[C@H](O)CC[C@@H](O)C[C@@H](O)CC(=O)O[C@H]1C)C[C@H](O)[C@H]2C(=O)O` [AMPHOTERICIN B]?
**A.** MIC (Candida albicans [8]; read-out: MIC100): 4 µg/mL (≈ 4.33 µM); MIC (Candida albicans [9]): 4 µg/mL (≈ 4.33 µM)

**Q.** How did the MIC (Klebsiella pneumoniae [10]; read-out: MIC100) turn out when `C[C@@H](O)[C@H]1C(=O)N2C(C(=O)O)=C(SCCNC=N)C[C@H]12` [IMIPENEM ANHYDROUS] was run?
**A.** The MIC was at least 4 µg/mL.

**Q.** For `C[C@@H](c1ncncc1F)[C@](O)(Cn1cncn1)c1ccc(F)cc1F` [VORICONAZOLE], which MIC (Candida albicans [8]; read-out: MIC100) is on record?
**A.** Its MIC is at most 0.12 µg/mL.

**Q.** What about the MIC (Candida albicans [9]) of the same compound?
**A.** The MIC was at least 1 µg/mL.

**Q.** Which MIC100 (Klebsiella pneumoniae [10]) does the source give for GENTAMICIN here?
**A.** The MIC100 was 4 µg/mL.
